This passage reports solubility and degradation results from patent US8940757B2, “Prasugrel in micronized, crystalline form and pharmaceutical composition thereof” (ratiopharm GmbH, priority 2010, dated 2015).

SMILES strings stand for the structures. Values after ≈ are worked out from the molar mass of the structure shown.

Series [1] in a line: Solubility in water. The class given is physicochemical. To be noted: free base. The procedure:
Prasugrel is administered orally as platelet aggregation inhibitor. The problem here is that Prasugrel is a sparingly soluble active ingredient.

Series [2] in a line: pH-dependent degradation. To be noted: pH values of <3, after 2 hours. It counts as physicochemical. The procedure:
In addition, Prasugrel also has a strongly pH-dependent degradation. With pH values of <3 a degradation of more than 1% is observed already after 2 hours. This limits the potential excipients in the preparation of pharmaceutical formulations.

The solubility is how much of the substance goes into solution per volume. As to `CC(=O)Oc1cc2c(s1)CCN(C(C(=O)C1CC1)c1ccccc1F)C2` (stereo not drawn) [Prasugrel, 2-acetoxy-5-(α-cyclopropylcarbonyl-2-fluorobenzyl)-4,5,6,7-tetrahydrothieno[3,2-c]pyridine], the concentration in solution in series [1] (solubility) came to 57 µg/mL (≈ 153 µM). Further, the degradation result in series [2] is reported as “more than 1%”.
